# Results published in patent US7807676B2, “Diketo-Piperazine and Piperidine derivatives as antiviral agents” (priority 2006, dated 2010).
# System: HIV-1 single-round infectious reporter virus
# Assay: Single-round infectious HIV-1 luciferase reporter virus infection of HeLa CD4 cells (antiviral EC50)
# Assay type: cell-based
# Details: Human immunodeficiency virus 1, HeLa, read-out: EC50 Group from Table 3
# In short: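 Env-pseudotyped single-round HIV-1 reporter virus (env-deleted provirus with luciferase in place of nef, made in 293 cells) infected HeLa CD4 cells at MOI ~0.01 with compound present, up to 10 μM final. Luciferase luminescence read after 72 h at 37 °C; EC50 from four-parameter logistic fit of % inhibition over 10 concentrations.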
row,Compound,EC50
1,CNCc1nc(-c2ncc(OC)c3c(C(=O)C(=O)N4CCN(c5nnnn5-c5ccccc5)CC4)c[nH]c23)cs1 [B-59],< 500 nM
2,CCOC(=O)c1cc(-c2ncc(F)c3c(C(=O)C(=O)N4CCN(c5nnnn5-c5ccccc5)CC4)cn(C)c23)nn1C [B-60],< 500 nM
3,COc1cnc(-c2cncnc2)c2[nH]cc(C(=O)C(=O)N3CCN(c4nnnn4-c4ccccc4)CC3)c12 [B-63],< 500 nM
4,COc1cnc(C(=O)NCCO)c2[nH]cc(C(=O)C(=O)N3CCN(c4nnnn4-c4ccccc4)CC3)c12 [B-64],< 500 nM
5,CNC(=O)c1ncc(OC)c2c(C(=O)C(=O)N3CCN(c4nnnn4-c4ccccc4)CC3)c[nH]c12 [B-65],< 500 nM
6,COc1cnc(C(=O)NC2CC2)c2[nH]cc(C(=O)C(=O)N3CCN(c4nnnn4-c4ccccn4)CC3)c12 [B-66],< 500 nM
7,COc1cnc(-c2cc(CO)[nH]n2)c2[nH]cc(C(=O)C(=O)N3CCN(c4nnnn4-c4ccccn4)CC3)c12 [B-67],< 500 nM
8,COc1cnc(-c2cc(C(C)(C)O)[nH]n2)c2[nH]cc(C(=O)C(=O)N3CCN(c4nnnn4-c4ccccn4)CC3)c12 [B-68],< 500 nM
9,COc1nc(-c2ncc(OC)c3c(C(=O)C(=O)N4CCN(c5nnnn5-c5ccccn5)CC4)c[nH]c23)cs1 [B-69],< 500 nM
10,COc1cnc(-c2cscn2)c2[nH]cc(C(=O)C(=O)N3CCN(c4nnnn4-c4ccccn4)CC3)c12 [B-70],< 500 nM
11,COc1cnc(-c2cncs2)c2[nH]cc(C(=O)C(=O)N3CCN(c4nnnn4-c4ccccn4)CC3)c12 [B-71],< 500 nM
12,COc1cnc(-c2cc[nH]n2)c2[nH]cc(C(=O)C(=O)N3CCN(c4nnnn4-c4ccccn4)CC3)c12 [B-72],< 500 nM
13,COc1cnc(-c2ccn(C)n2)c2[nH]cc(C(=O)C(=O)N3CCN(c4nnnn4-c4ccccn4)CC3)c12 [B-73],< 500 nM
14,COc1cnc(-c2ccn(CC(=O)O)n2)c2c1c(C(=O)C(=O)N1CCN(c3nnnn3-c3ccccn3)CC1)cn2CC(=O)O [B-74],> 500 nM
15,COc1cnc(-c2ccn(CC(=O)O)n2)c2[nH]cc(C(=O)C(=O)N3CCN(c4nnnn4-c4ccccn4)CC3)c12 [B-75],< 500 nM
16,COc1cnc(-c2ccn(CC(=O)N(C)C)n2)c2[nH]cc(C(=O)C(=O)N3CCN(c4nnnn4-c4ccccn4)CC3)c12 [B-76],> 500 nM
17,CNC(=O)Cn1ccc(-c2ncc(OC)c3c(C(=O)C(=O)N4CCN(c5nnnn5-c5ccccn5)CC4)c[nH]c23)n1 [B-77],< 500 nM
18,CCC(O)(CC)c1cc(-c2ncc(OC)c3c(C(=O)C(=O)N4CCN(c5nnnn5-c5ccccn5)CC4)c[nH]c23)n[nH]1 [B-78],< 500 nM
19,COc1cnc(-n2cc(Cl)cn2)c2[nH]cc(C(=O)C(=O)N3CCN(c4nnnn4-c4ccccn4)CC3)c12 [B-79],< 500 nM
20,COc1cnc(-n2cnc(NC(=O)C(C)(C)C)n2)c2[nH]cc(C(=O)C(=O)N3CCN(c4nnnn4-c4ccccn4)CC3)c12 [B-80],< 500 nM
21,COc1cnc(-c2ccc(N3CCN(C(=O)OC(C)(C)C)CC3)cc2)c2[nH]cc(C(=O)C(=O)N3CCN(c4nnnn4-c4ccccn4)CC3)c12 [B-81],< 500 nM
22,COc1cnc(-c2ccc(N3CCNCC3)cc2)c2[nH]cc(C(=O)C(=O)N3CCN(c4nnnn4-c4ccccn4)CC3)c12 [B-82],< 500 nM
23,COc1cnc(-c2ccc(N3CCN(C(=O)OC(C)C)CC3)cc2)c2[nH]cc(C(=O)C(=O)N3CCN(c4nnnn4-c4ccccn4)CC3)c12 [B-83],< 500 nM

row,Compound,EC50
1,COc1cnc(-c2ccc(N3CCN(C(=O)OCC(C)C)CC3)cc2)c2[nH]cc(C(=O)C(=O)N3CCN(c4nnnn4-c4ccccn4)CC3)c12 [B-84],< 500 nM
2,CCOC(=O)N1CCN(c2ccc(-c3ncc(OC)c4c(C(=O)C(=O)N5CCN(c6nnnn6-c6ccccn6)CC5)c[nH]c34)cc2)CC1 [B-85],< 500 nM
3,COc1cnc(-c2ccc(N3CCN(C(=O)NC(C)(C)C)CC3)cc2)c2[nH]cc(C(=O)C(=O)N3CCN(c4nnnn4-c4ccccn4)CC3)c12 [B-86],< 500 nM
4,COc1cnc(-c2ccc(N3CCN(C(=O)NC(C)C)CC3)cc2)c2[nH]cc(C(=O)C(=O)N3CCN(c4nnnn4-c4ccccn4)CC3)c12 [B-87],< 500 nM
5,COc1ncc(-c2ncc(OC)c3c(C(=O)C(=O)N4CCN(c5nnnn5-c5ccccn5)CC4)c[nH]c23)s1 [B-88],< 500 nM
6,CCOc1ncc(-c2ncc(OC)c3c(C(=O)C(=O)N4CCN(c5nnnn5-c5ccccn5)CC4)c[nH]c23)s1 [B-89],< 500 nM
7,COc1cnc(-c2cnc(C)s2)c2[nH]cc(C(=O)C(=O)N3CCN(c4nnnn4-c4ccccn4)CC3)c12 [B-90],< 500 nM
8,CCc1ncc(-c2ncc(OC)c3c(C(=O)C(=O)N4CCN(c5nnnn5-c5ccccn5)CC4)c[nH]c23)s1 [B-91],< 500 nM
9,COc1cnc(Nc2ccncn2)c2[nH]cc(C(=O)C(=O)N3CCN(c4nnnn4-c4ccccn4)CC3)c12 [B-92],< 500 nM
10,"C[C@@H]1CN(c2nnnn2-c2ccccc2)C[C@H](C)N1C(=O)C(=O)c1c[nH]c2c(-n3ccnn3)ncc(F)c12 [C-1, 1-((2R,6S)-2,6-dimethyl-4-(1-phenyl-1H-tetrazol-5-yl)piperazin-1-yl)-2-(4-fluoro-7-(1H-1,2,3-triazol-1-yl)-1H-pyrrolo[2,3-c]pyridin-3-yl)ethane-1,2-dione]",< 500 nM
11,COc1cnc(-n2cnc(C)n2)c2[nH]cc(C(=O)C(=O)N3CCN(c4ncccc4C#N)CC3)c12 [D-1],< 500 nM
12,COc1cnc(-n2cnc(C)n2)c2[nH]cc(C(=O)C(=O)N3CCN(c4ncccc4I)CC3)c12 [D-2],< 500 nM
13,COc1cnc(-n2cnc(C)n2)c2[nH]cc(C(=O)C(=O)N3CCN(c4ncccc4C)CC3)c12 [D-3],< 500 nM
14,N#Cc1cccnc1N1CCN(C(=O)C(=O)c2c[nH]c3c(-n4ccnn4)ncc(F)c23)CC1 [D-4],< 500 nM
15,O=C(C(=O)N1CCN(c2ncccc2I)CC1)c1c[nH]c2c(-n3ccnn3)ncc(F)c12 [D-5],< 500 nM
16,Cc1cccnc1N1CCN(C(=O)C(=O)c2c[nH]c3c(-n4ccnn4)ncc(F)c23)CC1 [D-6],< 500 nM
17,COc1cnc(-n2cnc(C)n2)c2[nH]cc(C(=O)C(=O)N3CCN(C4=C(c5ccccc5)C(=O)c5ccccc54)CC3)c12 [D-7],< 500 nM
18,CCOC(=O)c1cccnc1N1CCN(C(=O)C(=O)c2c[nH]c3c(-n4cnc(C)n4)ncc(OC)c23)CC1 [D-8],< 500 nM
19,COc1cnc(-n2cnc(C)n2)c2[nH]cc(C(=O)C(=O)N3CCN(c4nc5ccccc5nc4-n4nc(C)cc4C)CC3)c12 [D-9],> 500 nM
20,COc1cnc(-n2cnc(C)n2)c2[nH]cc(C(=O)C(=O)N3CCN(c4nc(C)nc5scc(-c6ccccc6)c45)C[C@H]3C)c12 [D-10],< 500 nM
21,COc1cnc(-n2cnc(C)n2)c2[nH]cc(C(=O)C(=O)N3CCN(c4ncnc5cc(-c6ccccc6)sc45)C[C@H]3C)c12 [D-11],> 500 nM
22,COc1cnc(-n2cnc(C)n2)c2[nH]cc(C(=O)C(=O)N3CCN(c4ncccc4N4CC(C)(C)C4=O)C[C@H]3C)c12 [D-12],> 500 nM
23,COc1cnc(-n2cnc(C)n2)c2[nH]cc(C(=O)C(=O)N3CCN(c4ncccc4C(=O)N4CCOCC4)C[C@H]3C)c12 [D-13],> 500 nM

row,Compound,EC50
1,COc1cnc(-n2cnc(C)n2)c2[nH]cc(C(=O)C(=O)N3CCN(c4snnc4-c4ccccc4)C[C@H]3C)c12 [D-14],< 500 nM
2,COc1cnc(-n2cnc(C)n2)c2[nH]cc(C(=O)C(=O)N3CCN(c4ncccc4-c4nc5ccccc5s4)CC3)c12 [D-15],< 500 nM
3,COc1cnc(-n2cnc(C)n2)c2[nH]cc(C(=O)C(=O)N3CCN(c4ncccc4C(=O)NCc4ccccc4)CC3)c12 [D-16],> 500 nM
4,CCOc1nccnc1N1CCN(C(=O)C(=O)c2c[nH]c3c(-n4cnc(C)n4)ncc(OC)c23)CC1 [D-17],< 500 nM
5,COc1cnc(-n2cnc(C)n2)c2[nH]cc(C(=O)C(=O)N3CCN(c4nsnc4Cl)CC3)c12 [D-20],< 500 nM
6,COc1cnc(-n2cnc(C)n2)c2[nH]cc(C(=O)C(=O)N3CCN(c4ncccc4C(=O)Nc4ccccc4)CC3)c12 [D-22],> 500 nM
7,O=C1C(c2ccccc2)=C(N2CCN(C(=O)C(=O)c3c[nH]c4c(-n5ccnn5)ncc(F)c34)CC2)c2ccccc21 [D-23],< 500 nM
8,CCOC(=O)c1cccnc1N1CCN(C(=O)C(=O)c2c[nH]c3c(-n4ccnn4)ncc(F)c23)CC1 [D-24],< 500 nM
9,Cc1nc(N2CCN(C(=O)C(=O)c3c[nH]c4c(-n5ccnn5)ncc(F)c34)[C@H](C)C2)c2c(-c3ccccc3)csc2n1 [D-26],> 500 nM
10,C[C@@H]1CN(c2ncnc3cc(-c4ccccc4)sc23)CCN1C(=O)C(=O)c1c[nH]c2c(-n3ccnn3)ncc(F)c12 [D-27],< 500 nM
11,C[C@@H]1CN(c2ncccc2N2CC(C)(C)C2=O)CCN1C(=O)C(=O)c1c[nH]c2c(-n3ccnn3)ncc(F)c12 [D-28],> 500 nM
12,C[C@@H]1CN(c2ncccc2C(=O)N2CCOCC2)CCN1C(=O)C(=O)c1c[nH]c2c(-n3ccnn3)ncc(F)c12 [D-29],> 500 nM
13,C[C@@H]1CN(c2snnc2-c2ccccc2)CCN1C(=O)C(=O)c1c[nH]c2c(-n3ccnn3)ncc(F)c12 [D-30],< 500 nM
14,O=C(C(=O)N1CCN(c2ncccc2-c2nc3ccccc3s2)CC1)c1c[nH]c2c(-n3ccnn3)ncc(F)c12 [D-31],> 500 nM
15,O=C(c1ccccn1)c1cccnc1N1CCN(C(=O)C(=O)c2c[nH]c3c(-n4ccnn4)ncc(F)c23)CC1 [D-32],< 500 nM
16,O=C(c1nccs1)c1cccnc1N1CCN(C(=O)C(=O)c2c[nH]c3c(-n4ccnn4)ncc(F)c23)CC1 [D-33],< 500 nM
17,O=C(NC1CCCCC1)c1cccnc1N1CCN(C(=O)C(=O)c2c[nH]c3c(-n4ccnn4)ncc(F)c23)CC1 [D-34],< 500 nM
18,CC(C)Oc1nccnc1N1CCN(C(=O)C(=O)c2c[nH]c3c(-n4ccnn4)ncc(F)c23)CC1 [D-35],< 500 nM
19,C[C@@H]1CN(c2nn(C)c(=O)cc2-c2ccccc2)CCN1C(=O)C(=O)c1c[nH]c2c(-n3ccnn3)ncc(F)c12 [D-36],> 500 nM
20,CN(C)CCCNC(=O)c1cccnc1N1CCN(C(=O)C(=O)c2c[nH]c3c(-n4ccnn4)ncc(F)c23)CC1 [D-37],> 500 nM
21,O=C(C(=O)N1CCN(c2ncccc2C(=O)N2CCOCC2)CC1)c1c[nH]c2c(-n3ccnn3)ncc(F)c12 [D-38],> 500 nM
